In patent US20040266885A1, “Wood preservative compositions” (priority 2001, published 2004):
“And” between values parts separate entries of the source, which are not always exact repeats. Equal entries are not always repeated. Where two headings read alike, the source gives them in different places.

Tested on: Coptotermes formosanus
Conditions: for Mean Rating (termite attack): mean of 4 specimens; for Mean Rating (termite attack) / Termite Attack Rating: 4 weeks sand culture; for Termite Attack Rating: single specimen
Excerpt: A laboratory test was undertaken to determine the toxic values of novel actives against termites. The active materials used were TBBA, TBBE [4,4′-ethylidenebis(2,6-dibromophenol)] [CAS RN=12639-25-3] (Sample Number 1392-82-03); TBBZ [4,4′-cyclohexylidene(2,6-dibromophenol)] [CAS RN=53350-96-2] (Sample Number 1392-72-03) and TBA, 2,2′,6-tribromo-4,4′-isopropylidenediphenol, CAS 6386-73-8 (Sample Number 1392-75-03).
The test was undertaken largely according to the strictures laid down in ASTM 3345-74 (the American standard laboratory test to assess the termite resistant properties of wood to wood destroying termites). The test method allows for the exposure of treated buried wood blocks to termites (Reticulitermes or Coptotermes spp.) over a period of 4 weeks. Efficacy of the product is determined by the extent of termite damage to the treated timber specimens through a scoring system. The test was slightly modified from the standard ASTM test by reducing the number of replicate wood specimens from 5 to 4.
Score 1: Attempted attack
The toxic values of the preservative product (in kg/m^3 of wood) fall between two values as follows:
1) The lowest concentration which protects the wood (i.e. the concentration at which none of the test specimens show a degree of attack greater than 1).
The termites employed were Coptotermes formosanus.
All wood bock specimens were of Southern Yellow Pine sapwood (Pinus spp.) with dimensions of 25.4×25.4×6.4 mm in accordance with ASTM D3345-74. All blocks were vacuum impregnated with the relevant solutions in accordance with ASTM D3345-74. Distribution of blocks in the test was as follows:
The test specimens were conditioned and subjected to a leaching schedule (after vacuum impregnation) as stipulated in ASTM D1413-76 (as recommended in ASTM D3345-74). All test specimens were then air dried for two weeks to constant weight.
The specimens were each positioned at the base of a 500 ml polyethylene culture jar (numbered according to each test specimen) and covered with 200 g of sand (pre-washed, sterilised and air conditioned in the laboratory) to which was added 25 g of de-ionised water. A further two containers containing watered sand but no timber were also prepared. All the jars were sealed (lids pre-pierced and covered with stainless steel mesh for aeration).
Two days after specimen placement, 200 termites were added to each culture jar (90% workers and 10% soldiers) and the jars re-sealed. The jars were incubated at a mean temperature and relative humidity of 27.5° C. and 75-90% for 4 weeks. The containers were provided with an artificial lighting regime of 10 hours light and 14 hours darkness.
After 1 week and 4 weeks each container was examined to determine termite mortality and normal tunneling behaviour patterns as follows:
Is there tunneling present: YES/NO
Are there any termites on the surface of the soil: YES/NO (if yes how many, i.e. 1-25% of pop, 26-50% of pop, 51-100% of pop.)
Are any dead termites visible: YES/NO (if yes how many, 1-33%, 34-66%, 67-100%)
After 4 weeks the test specimens were removed and cleaned of debris. Each block was examined and visually rated for termite damage using the scoring system detailed above.

[1] = 1 week, solution conc. 1%, ethanol carrier
[2] = 1 week, solution conc. 3%, ethanol carrier
[3] = 1 week, solution conc. 5%, ethanol carrier
[4] = 1 week, solution conc. 7%, ethanol carrier
[5] = 1 week, solution conc. 10%, ethanol carrier
[6] = 4 weeks, solution conc. 1%, ethanol carrier
[7] = 4 weeks, solution conc. 3%, ethanol carrier
[8] = 4 weeks, solution conc. 5%, ethanol carrier
[9] = 4 weeks, solution conc. 7%, ethanol carrier
[10] = 4 weeks, solution conc. 10%, ethanol carrier
[11] = solution conc. 1%, ethanol carrier
[12] = solution conc. 3%, ethanol carrier
[13] = solution conc. 5%, ethanol carrier
[14] = solution conc. 7%, ethanol carrier
[15] = solution conc. 10%, ethanol carrier
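Throughout, for Termite Attack Rating: score 0 no attack 2 slight 3 average 4 strong attack.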

## CC(C)(c1cc(Br)c(O)c(Br)c1)c1cc(Br)c(O)c(Br)c1 [TBBA, Tetrabromobisphenol A]
[1]
  Surface Activity (termites on the surface of the soil): No/No
  Tunneling Activity: Yes/Yes
  Visible Mortality: No/No
[2]
  Surface Activity (termites on the surface of the soil): No/No
  Tunneling Activity: Yes/Yes
  Visible Mortality: No and No/No
[3]
  Surface Activity (termites on the surface of the soil): 1-25 % (of pop.)
  Tunneling Activity: Yes/Yes
[4]
  Surface Activity (termites on the surface of the soil): No/No
  Tunneling Activity: Yes/Yes
  Visible Mortality: No
[5]
  Surface Activity (termites on the surface of the soil): No
  Tunneling Activity: Yes/Yes
  Visible Mortality: No
[6]
  Surface Activity (termites on the surface of the soil): No/No
  Tunneling Activity: Yes/Yes
  Visible Mortality: No/No
[7]
  Surface Activity (termites on the surface of the soil): No/No
  Tunneling Activity: Yes/Yes
[8]
  Surface Activity (termites on the surface of the soil): No
  Tunneling Activity: Yes/Yes
[9]
  Surface Activity (termites on the surface of the soil): No/No
  Tunneling Activity: Yes/Yes
[10]
  Surface Activity (termites on the surface of the soil): 1-25 % (of pop.)
  Tunneling Activity: Yes/Yes
  Visible Mortality: 67-100 % (of pop.)
Concentrated solutions, followed by leaching
  reduction in termite attack: a significant reduction in termite attack
Ethanol carrier
  repellent effect on termites (surface activity data): a degree of termite repellency throughout the incubation period
Mean loading, solution concentration 5%, ethanol carrier, leached, 4 weeks
  toxic value, lower (concentration at which the wood is no longer sufficiently protected): 32.52 kg/m^3
Mean loading, solution concentration 7%, ethanol carrier, leached, 4 weeks
  toxic value, upper (lowest concentration which protects the wood): 44.00 kg/m^3
[11]
  Mean Rating (termite attack): 2.75
  Termite Attack Rating: 3 and 2 and 4
[12]
  Mean Rating (termite attack): 2.25
  Termite Attack Rating: 2 and 3
[13]
  Mean Rating (termite attack): 1.50
  Termite Attack Rating: 1 and 2
[14]
  Mean Rating (termite attack): 1.00
  Termite Attack Rating: 1
[15]
  Mean Rating (termite attack): 1.00
  Termite Attack Rating: 1
